The values that follow come from patent US7563895B2, “Quinoxaline compounds” (Janssen Pharmaceutica, N.V., priority 2003, dated 2009).

SMILES strings stand for the structures.

This test concerns the target T1, CCK2 receptor (Homo sapiens, UniProt P32239).
T1 construct: Membranes were prepared from the HEKZFP cells after induction; endogenous in cells; host or cells: HEKZFP cells (T-REx-293 with tet-inducible ZFP-VP16 specific for the CCK2R gene), doxycycline-induced; membrane preparation
T1 sequence (P32239 1-447): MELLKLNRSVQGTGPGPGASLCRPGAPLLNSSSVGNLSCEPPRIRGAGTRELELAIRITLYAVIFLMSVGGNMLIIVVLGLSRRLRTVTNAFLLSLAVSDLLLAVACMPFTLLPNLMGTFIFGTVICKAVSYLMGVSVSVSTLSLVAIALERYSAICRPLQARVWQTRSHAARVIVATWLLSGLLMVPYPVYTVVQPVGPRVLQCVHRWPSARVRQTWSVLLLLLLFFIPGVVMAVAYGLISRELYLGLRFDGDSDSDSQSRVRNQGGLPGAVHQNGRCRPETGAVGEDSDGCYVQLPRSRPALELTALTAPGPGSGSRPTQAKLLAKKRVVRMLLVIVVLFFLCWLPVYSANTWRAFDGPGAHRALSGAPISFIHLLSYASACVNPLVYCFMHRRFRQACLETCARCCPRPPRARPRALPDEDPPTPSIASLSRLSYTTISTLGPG
Briefly: CCK2 receptor radioligand binding assay ([125I]-BH-CCK-8S, HEKZFP cell membranes). The conditions noted are these: competition with [125I]-BH-CCK-8S, membranes of induced HEKZFP cells, 60 min at 21±3° C., Cheng-Prusoff. The procedure:
Zinc Finger Proteins (ZFP) specific for the CCK2R gene were identified by Sangamo Biosciences. The ZFP domain was fused with the herpes simplex virus VP16 activation domain, and the fusion protein was subsequently cloned into the pcDNA3 mammalian expression vector (Invitrogen, San Diego, Calif.). […] After 2 weeks of selection in culture medium containing […] Zeocin (Invitrogen), sixty drug-resistant stable clones were isolated and analyzed for ZFP expression as well as CCK2R induction upon addition of doxycycline to the culture medium.
HEKZFP cells were grown in DMEM supplemented with L-glutamine (2 mM), penicillin (50 units/mL) and streptomycin (50 μg/mL) and 10% FBS (v/v).
Membranes were prepared from the HEKZFP cells after induction. […] The thawed pellets were homogenized using a Polytron PT-10 (7×1 s). The homogenates were centrifuged for 5 min at 1500 rpm (600×g), and the resulting pellets were discarded. The supernatants were re-centrifuged in order to collect the receptor-membrane pellets (25 min 15,000 rpm; 39,800×g), which were re-suspended in buffer A.
The assay preparation was incubated for 1 h at 21±3° C., and then the assay was terminated by rapid filtration of the preparation under reduced pressure. The loaded filters were washed three times using undiluted PBS (100 μL), and then 100 μL of scintillation fluid was added to the filter plate. Bound radioactivity was determined using a Topcount (Packard BioScience, Meriden, Conn.) with a count time of 1 min. […] To validate the radioligand concentration and incubation time for the assay, saturation and kinetic binding studies were also conducted (see M. F. Morton, The Pharmacological Characterization of Cholecystokinin Receptors in the Human Gastrointestinal Tract. PhD Thesis, University of London, 2000). […] The assay was then terminated according to the procedure outlined above.
The pKi values were determined using the equation of Y.-C.
To circumvent problems associated with computer-assisted data analysis of compounds with low affinity, the data obtained in the current study were weighed according to a method described by Morton. In brief, 100% and 0% specific binding were defined independently using total binding and binding obtained in the presence of a high concentration of the reference antagonist, 2-NAP.
As usually defined, the Ki is the equilibrium dissociation constant of an inhibitor or competing ligand from its target. Lower therefore signals a stronger hold on the target. For the compound `O=C(c1ccc(I)cc1NS(=O)(=O)c1cccc2nccnc12)N1CCOc2cc(F)cc(F)c2C1` [Example 94, Quinoxaline-5-sulfonic acid [2-(6,8-difluoro-2,3-dihydro-5H-benzo[f][1,4]oxazepine-4-carbonyl)-5-iodo-phenyl]-amide], the inhibition constant (Ki) is 398 nM. Still for that read-out and setting: in the case of `O=C(c1ccc(Cl)cc1NS(=O)(=O)c1cccc2nccnc12)N1CCOc2cc(F)cc(F)c2C1` [Example 40, Quinoxaline-5-sulfonic acid [5-chloro-2-(6,8-difluoro-2,3-dihydro-5H-benzo[f][1,4]oxazepine-4-carbonyl)-phenyl]-amide] it was 251 nM. One may read the pKi as −log10 of the Ki, conventionally taken in molar units. Read a low pKi as a high Ki. With `O=C(c1ccc(I)cc1NS(=O)(=O)c1cccc2nccnc12)N1CCOCC1` [Example 6, Quinoxaline-5-sulfonic acid [5-iodo-2-(morpholine-4-carbonyl)-phenyl]-amide], the negative-log Ki (pKi) came out at 7.5. As for `C[C@@H](NC(=O)c1ccc(C(F)(F)F)cc1NS(=O)(=O)c1cccc2nccnc12)c1ccc(F)cc1F` [Example 36, (R)—N-[1-(2,4-Difluorophenyl)ethyl]-2-(quinoxaline-5-sulfonylamino)-4-trifluoromethylbenzamide], the Ki was 25.1 nM. The same measure, in the same setting: in the case of `CC(NC(=O)c1ccc(Br)cc1NS(=O)(=O)c1cccc2nccnc12)c1ccc(F)cc1` (centres unmarked) [Example 53, 4-Bromo-N-[1-(4-fluoro-phenyl)-ethyl]-2-(quinoxaline-5-sulfonylamino)-benzamide] it was 25.1 nM.

The compound `O=C(NCc1ccc(F)cc1F)c1ccc(I)cc1NS(=O)(=O)c1cccc2nccnc12` [Example 57, N-(2,4-Difluoro-benzyl)-4-iodo-2-(quinoxaline-5-sulfonylamino)-benzamide] registered a pKi of 7.4. On to `O=C(c1cc(Cl)c(Cl)cc1NS(=O)(=O)c1cccc2nccnc12)N1CCOCC1` [Example 20, Quinoxaline-5-sulfonic acid [4,5-dichloro-2-(morpholine-4-carbonyl)-phenyl]-amide], for which the Ki was 79.4 nM. Same read-out and setting: with `O=C(N[C@H](CF)c1ccc(F)cc1F)c1ccc(I)cc1NS(=O)(=O)c1cccc2nccnc12` [Example 77, (S)-N-[1-(2,4-Difluoro-phenyl)-2-fluoro-ethyl]-4-iodo-2-(quinoxaline-5-sulfonylamino)-benzamide] the figure was 50.1 nM; with `O=C(c1ccc(Br)cc1NS(=O)(=O)c1cccc2nccnc12)N1CCCc2cc(F)ccc2C1` [Example 24, Quinoxaline-5-sulfonic acid [5-bromo-2-(7-fluoro-1,3,4,5-tetrahydro-benzo[c]azepine-2-carbonyl)-phenyl]-amide], 316 nM; with `C[C@@H]1COCCN1C(=O)c1ccc(I)cc1NS(=O)(=O)c1cccc2nccnc12` [Example 19, (R)-Quinoxaline-5-sulfonic acid [5-iodo-2-(3-methylmorpholine-4-carbonyl)-phenyl]-amide], 79.4 nM.

The compound `C[C@@H](NC(=O)c1ccc(Br)cc1NS(=O)(=O)c1cccc2nccnc12)c1ccc(F)cc1` [Example 8, (R)-4-Bromo-N-[1-(4-fluorophenyl)-ethyl]-2-(quinoxaline-5-sulfonylamino)-benzamide] showed a Ki of 39.8 nM. Same read-out and setting: with `C[C@@H](NC(=O)c1cc(Cl)c(Cl)cc1NS(=O)(=O)c1cccc2nccnc12)c1ccc(F)cc1F` [Example 5, (R)-4,5-Dichloro-N-[1-(2,4-difluorophenyl)ethyl]-2-(quinoxaline-5-sulfonylamino)-benzamide] the figure was 15.8 nM; with `C[C@H]1COCCN1C(=O)c1ccc(I)cc1NS(=O)(=O)c1cccc2nccnc12` [Example 23, (S)-Quinoxaline-5-sulfonic acid [5-iodo-2-(3-methylmorpholine-4-carbonyl)-phenyl]-amide], 251 nM. In the case of `O=C(c1ccc(Br)cc1NS(=O)(=O)c1cccc2nccnc12)N1CCCCC1` [Example 32, Quinoxaline-5-sulfonic acid [5-bromo-2-(piperidine-1-carbonyl)-phenyl]-amide], the negative-log Ki (pKi) is 7.2. `O=C(c1ccc(Br)cc1NS(=O)(=O)c1cccc2nccnc12)N1CCOCC1` [Example 11, (R)-Quinoxaline-5-sulfonic acid [5-bromo-2-(morpholine-4-carbonyl)-phenyl]-amide]: the pKi was 7.2.

In the case of `O=C(c1ccc(Cl)cc1NS(=O)(=O)c1cccc2nccnc12)N1CCOCC1` [Example 14, (R)-Quinoxaline-5-sulfonic acid [5-chloro-2-(morpholine-4-carbonyl)phenyl]-amide], the negative logarithm of the Ki (pKi) worked out at 6.5. Compound `O=C(c1ccc(Br)cc1NS(=O)(=O)c1cccc2nccnc12)N1CCCCCC1` [Example 21, Quinoxaline-5-sulfonic acid [2-(azepane-1-carbonyl)-5-bromophenyl]-amide] had a Ki of 126 nM. On the same count and under the same terms, in the case of `O=C(NCc1ccc(Cl)cc1Cl)c1ccc(Cl)cc1NS(=O)(=O)c1cccc2nccnc12` [Example 58, 4-Chloro-N-(2,4-dichloro-benzyl)-2-(quinoxaline-5-sulfonylamino)-benzamide] it was 63.1 nM; in that of `O=C(NCc1ccc(F)cc1Cl)c1ccc(Cl)cc1NS(=O)(=O)c1cccc2nccnc12` [Example 61, 4-Chloro-N-(2-chloro-4-fluoro-benzyl)-2-(quinoxaline-5-sulfonylamino)-benzamide], 39.8 nM.

`CN(Cc1ccc(F)cc1)C(=O)c1ccc(I)cc1NS(=O)(=O)c1cccc2nccnc12` [Example 35, N-(4-Fluorobenzyl)-4-iodo-N-methyl-2-(quinoxaline-5-sulfonylamino)-benzamide]: the Ki is 15.8 nM. In turn, `O=C(NCc1ccc(F)cc1F)c1ccc(Br)cc1NS(=O)(=O)c1cccc2nccnc12` [Example 17, 4-Bromo-N-(2,4-difluoro-benzyl)-2-(quinoxaline-5-sulfonylamino)-benzamide] showed a Ki of 63.1 nM.

`O=C(N[C@@H](c1ccc(F)cc1F)C(F)(F)F)c1ccc(Cl)cc1NS(=O)(=O)c1cccc2nccnc12` [Example 29, (S)-4-Chloro-N-[1-(2,4-difluoro-phenyl)-2,2,2-trifluoroethyl]-2-(quinoxaline-5-sulfonylamino)-benzamide] had an inhibitory constant (Ki) of 501 nM. The same measure, in the same setting: with `O=C(c1ccc(Br)cc1NS(=O)(=O)c1cccc2nccnc12)N1CCCc2ccccc2C1` [Example 10, Quinoxaline-5-sulfonic acid [5-bromo-2-(1,3,4,5-tetrahydrobenzo[c]azepine-2-carbonyl)phenyl]-amide] the figure was 50.1 nM; with `C[C@H](c1ccccc1)N(C)C(=O)c1ccc(Cl)cc1NS(=O)(=O)c1cccc2nccnc12` [Example 62, (R)-4-Chloro-N-methyl-N-(1-phenyl-ethyl)-2-(quinoxaline-5-sulfonylamino)-benzamide], 15.8 nM.

`O=C(c1ccc(Cl)cc1NS(=O)(=O)c1cccc2nccnc12)N1CCCCC1` [Example 79, Quinoxaline-5-sulfonic acid [5-chloro-2-(piperidine-1-carbonyl)-phenyl]-amide] had an inhibitory constant (Ki) of 251 nM. With `C[C@@H](NC(=O)c1ccc(I)cc1NS(=O)(=O)c1cccc2nccnc12)c1ccc(Cl)cc1Cl` [Example 64, (R)-N-[1-(2,4-Dichloro-phenyl)-ethyl]-4-iodo-2-(quinoxaline-5-sulfonylamino)-benzamide], the inhibition constant (Ki) is 25.1 nM. The same measure, in the same setting: in the case of `CC(NC(=O)c1ccc(Br)cc1NS(=O)(=O)c1cccc2nccnc12)c1ccc(Cl)cc1` (centres unmarked) [Example 50, 4-Bromo-N-[1-(4-chloro-phenyl)-ethyl]-2-(quinoxaline-5-sulfonylamino)-benzamide] it was 63.1 nM; in that of `CN(Cc1ccccc1)C(=O)c1ccc(I)cc1NS(=O)(=O)c1cccc2nccnc12` [Example 42, N-Benzyl-4-iodo-N-methyl-2-(quinoxaline-5-sulfonylamino)-benzamide], 25.1 nM. Still for that read-out and setting: in the case of `C[C@@H](NC(=O)c1ccc(Br)cc1NS(=O)(=O)c1cccc2nccnc12)c1ccc(Cl)cc1Cl` [Example 1, (R)-4-Bromo-N-[1-(2,4-dichlorophenyl)-ethyl]-2-(quinoxaline-5-sulfonylamino)-benzamide] it was 7.94 nM.
